For 78 compounds, LC retention time results are on record in the RepoRT retention time repository.

SMILES strings stand for the structures.

The data set is described as follows: RP, Waters CORTECS UPLC C18, 100 × 2.1 mm, 1.6 µm, 40 °C, 0.4 mL/min, estimated dead time 0.55 min; A: water + 0.1% formic acid, pH 3; B: acetonitrile + 0.1% formic acid, pH 3; gradient (min/%B) 0/5 1.12/5 6.41/99.5 10.01/99.5. The settings on record: stereoisomer not certain.
Consider `CC(CCC(=O)NCC(=O)O)C1CCC2C3CCC4CC(O)CCC4(C)C3CCC12C` (stereo not drawn) [Glycolithocholic acid], for which the LC retention time is 5.25 min.

In the case of `CC(C)(C)N(NC(=O)c1ccc(Cl)cc1)C(=O)c1ccccc1` [Halofenozide], the LC retention time was 4.84 min.

For the compound `CCCCC(O)(Cn1cncn1)c1ccc(Cl)cc1Cl` (stereo not drawn) [Hexaconazole], the LC retention time was 5.17 min.

As to `O=C(NC(=O)c1c(F)cccc1F)Nc1cc(Cl)c(OC(F)(F)C(F)F)c(Cl)c1` [Hexaflumuron], the LC retention time is 5.61 min.

Consider `CCCCCC(=O)OC(CC(=O)[O-])C[N+](C)(C)C` [Hexanoyl-L-carnitine], for which the LC retention time was 3.05 min.

With `CC1C(c2ccc(Cl)cc2)SC(=O)N1C(=O)NC1CCCCC1` (stereo not drawn) [Hexythiazox], the LC retention time was 6.21 min.

In the case of `O=C(O)CNC(=O)c1ccccc1` [Hippuric acid], the LC retention time was 2.6 min.

For the compound `CC1(C)CN=C(NN=C(C=Cc2ccc(C(F)(F)F)cc2)C=Cc2ccc(C(F)(F)F)cc2)NC1` [Hydramethylnon (Amdro)], the LC retention time was 5.14 min.

Consider `CC(CCC(=O)O)C1CCC2C3CC(O)C4CC(O)CCC4(C)C3CCC12C` (stereo not drawn) [Hyodeoxycholic acid], for which the LC retention time is 4.58 min.

On to `NC(=O)Cc1c[nH]c2ccccc12` [INDOLE-3-ACETAMIDE], for which the LC retention time is 2.89 min.

Regarding `OCCc1c[nH]c2ccccc12` [INDOLE-3-ETHANOL], the LC retention time is 3.05 min.

For `COC(=O)Cc1c[nH]c2ccccc12` [INDOLE-3-METHYL ACETATE], the LC retention time is 4.14 min.

Regarding `O=CCc1c[nH]c2ccccc12` [INDOLEACETALDEHYDE], the LC retention time is 2.55 min.

For the compound `C=CCOC(Cn1ccnc1)c1ccc(Cl)cc1Cl` (stereo not drawn) [Imazalil], the LC retention time was 3.88 min.

Take `O=[N+]([O-])NC1=NCCN1Cc1ccc(Cl)nc1` [Imidacloprid]: the LC retention time was 3.19 min.

`O=C(O)CCCc1c[nH]c2ccccc12` [Indole-3-butyric acid]: the LC retention time is 3.94 min.

In the case of `O=Cc1c[nH]c2ccccc12` [Indole-3-carboxaldehyde], the LC retention time is 3.28 min.

`O=C(O)c1c[nH]c2ccccc12` [Indole-3-carboxylic acid]: the LC retention time is 3.21 min.

Turning to `O=C(O)CCc1c[nH]c2ccccc12` [Indole-3-propionic acid], the LC retention time was 3.7 min.

As to `COC(=O)N(C(=O)N1COC2(C(=O)OC)Cc3cc(Cl)ccc3C2=N1)c1ccc(OC(F)(F)F)cc1` (stereo not drawn) [Indoxacarb], the LC retention time was 5.75 min.

As for `CC(C)C1CCC(Cc2ccc(Cl)cc2)C1(O)Cn1cncn1` (stereo not drawn) [Ipconazole], the LC retention time was 5.48 min.

With `Cc1ccc(C(C)NC(=O)C(NC(=O)OC(C)C)C(C)C)cc1` (stereo not drawn) [Iprovalicarb], the LC retention time is 4.86 min.

Consider `CC(C)C(=O)OC(CC(=O)[O-])C[N+](C)(C)C` [Isobutyryl-L-carnitine], for which the LC retention time was 1.79 min.

Take `COP(N)(=S)Oc1ccccc1C(=O)OC(C)C` (stereo not drawn) [Isocarbophos]: the LC retention time is 2.32 min.

Turning to `CC(C)OC(=O)C(C(=O)OC(C)C)=C1SCCS1` [Isoprothiolane], the LC retention time is 5.21 min.

On to `CC(C)CC(=O)OC(CC(=O)[O-])C[N+](C)(C)C` [Isovaleryl-L-carnitine], for which the LC retention time was 2.61 min.

Turning to `CCC(C)(CC)c1cc(NC(=O)c2c(OC)cccc2OC)on1` [Isoxaben], the LC retention time was 5.08 min.

Regarding `CS(=O)(=O)c1cc(C(F)(F)F)ccc1C(=O)c1cnoc1C1CC1` [Isoxaflutole], the LC retention time is 4.85 min.

In the case of `O=C(O)c1cc(=O)c2ccccc2[nH]1` [KYNURENATE], the LC retention time was 2.35 min.

Take `Nc1ccccc1C(=O)CC(N)C(=O)O` (stereo not drawn) [KYNURENINE]: the LC retention time was 1.19 min.

With `CON=C(C(=O)OC)c1ccccc1COc1ccccc1C` [Kresoxim-methyl], the LC retention time was 5.42 min.

`O=C1CC[C@@H](C(=O)O)N1` [L-Pyroglutamic acid]: the LC retention time was 0.71 min.

For the compound `NC(=O)[C@@H](N)Cc1c[nH]c2ccccc12` [L-TRYPTOPHANAMIDE], the LC retention time was 1.79 min.

`NC(Cc1cc(I)c(Oc2ccc(O)c(I)c2)c(I)c1)C(=O)O` (stereo not drawn) [LIOTHYRONINE]: the LC retention time was 3.71 min.

As to `Cc1cc2nc3[nH]c(=O)[nH]c(=O)c3nc2cc1C` [LUMICHROME], the LC retention time is 3.26 min.

`CCCCCCCCCCCC(=O)OC(CC(=O)[O-])C[N+](C)(C)C` [Lauroyl-L-carnitine]: the LC retention time is 4.7 min.

Turning to `O=c1[nH]c2c(c(=O)n1C1CCCCC1)CCC2` [Lenacil], the LC retention time was 3.96 min.

`CON(C)C(=O)Nc1ccc(Cl)c(Cl)c1` [Linuron]: the LC retention time is 4.8 min.

Regarding `O=C(NC(=O)c1c(F)cccc1F)Nc1cc(Cl)c(OC(F)(F)C(F)C(F)(F)F)cc1Cl` (stereo not drawn) [Lufenuron], the LC retention time is 5.91 min.

As for `COc1ccc2[nH]cc(CCNC(C)=O)c2c1` [MELATONIN], the LC retention time is 3.31 min.

In the case of `CSCC1OC(n2cnc3c(N)ncnc32)C(O)C1O` (stereo not drawn) [METHYLTHIOADENOSINE], the LC retention time was 2.19 min.

For `COC(=O)CCCC(=O)O` [MONOMETHYLGLUTARATE], the LC retention time was 2.47 min.

For `CCOC(=O)CC(SP(=O)(OC)OC)C(=O)OCC` (stereo not drawn) [Malaoxon], the LC retention time was 4.05 min.

`C#CCOc1ccc(CCNC(=O)C(OCC#C)c2ccc(Cl)cc2)cc1OC` (stereo not drawn) [Mandipropamid]: the LC retention time is 4.95 min.

As for `CCOC(=O)N(C)C(=O)CSP(=S)(OCC)OCC` [Mecarbam], the LC retention time was 5.34 min.

In the case of `CC#Cc1cc(C)nc(Nc2ccccc2)n1` [Mepanipyrim], the LC retention time was 5.11 min.

Take `COC(=O)c1ccc(CNS(C)(=O)=O)cc1S(=O)(=O)NC(=O)Nc1nc(OC)cc(OC)n1` [Mesosulfuron-methyl]: the LC retention time was 4.24 min.

In the case of `COCC(=O)N(c1c(C)cccc1C)C(C)C(=O)OC` (stereo not drawn) [Metalaxyl], the LC retention time is 4.33 min.

For `Cc1nnc(-c2ccccc2)c(=O)n1N` [Metamitron], the LC retention time was 3.09 min.

Take `Cc1cccc(C)c1N(Cn1cccn1)C(=O)CCl` [Metazachlor]: the LC retention time was 4.52 min.

Turning to `CC1(C)CCC(Cc2ccc(Cl)cc2)C1(O)Cn1cncn1` (stereo not drawn) [Metconazole], the LC retention time was 5.24 min.

Regarding `CNC(=O)N(C)c1nc2ccccc2s1` [Methabenzthiazurone], the LC retention time was 4.12 min.

Regarding `COP(N)(=O)SC` (stereo not drawn) [Methamidophos], the LC retention time is 0.974 min.

With `CNC(=O)ON=C(C)SC` [Methomyl], the LC retention time is 4.02 min.

In the case of `COCCCNc1nc(NC(C)C)nc(SC)n1` [Methoprotryne], the LC retention time was 3.87 min.

As for `COc1cccc(C(=O)NN(C(=O)c2cc(C)cc(C)c2)C(C)(C)C)c1C` [Methoxyfenozide], the LC retention time was 5.09 min.

As for `COc1cc(C)c(C(=O)c2c(OC)ccc(Br)c2C)c(OC)c1OC` [Metrafenone], the LC retention time is 4.52 min.

For the compound `CSc1nnc(C(C)(C)C)c(=O)n1N` [Metribuzin], the LC retention time was 3.98 min.

For the compound `COC(=O)c1ccccc1S(=O)(=O)NC(=O)Nc1nc(C)nc(OC)n1` [Metsulfuron-methyl], the LC retention time was 3.99 min.

Consider `COC(=O)C=C(C)OP(=O)(OC)OC` [Mevinphos], for which the LC retention time was 3.41 min.

With `CNC(=O)Oc1cc(C)c(N(C)C)c(C)c1` [Mexacarbate], the LC retention time was 2.61 min.

For the compound `CCC(C)C1OC2(C=CC1C)CC1CC(CC=C(C)C(OC3CC(OC)C(OC4CC(OC)C(O)C(C)O4)C(C)O3)C(C)C=CC=C3COC4C(O)C(C)=CC(C(=O)O1)C34O)O2` (stereo not drawn) [Mixture of Avermectin B1a and B1b], the LC retention time was 6.5 min.

As to `CCSC(=O)N1CCCCCC1` [Molinate], the LC retention time is 5.03 min.

As for `CNC(=O)C=C(C)OP(=O)(OC)OC` [Monocrotophos], the LC retention time is 2.65 min.

On to `CON=C1CC2(CC3CC(CC=C(C)CC(C)C=CC=C4COC5C(O)C(C)=CC(C(=O)O3)C45O)O2)OC(C(C)=CC(C)C)C1C` (stereo not drawn) [Moxidectin], for which the LC retention time is 6.81 min.

For `CCCCC(C#N)(Cn1cncn1)c1ccc(Cl)cc1` (stereo not drawn) [Myclobutanil], the LC retention time is 4.93 min.

`CCCCCCCCCCCCCC(=O)OC(CC(=O)[O-])C[N+](C)(C)C` [Myristoyl-L-carnitine]: the LC retention time is 5.13 min.

For the compound `CCC(C)C(=O)NCC(=O)O` (stereo not drawn) [N-(2-Methylbutyryl)glycine], the LC retention time is 2.27 min.

In the case of `O=C(O)CNC(=O)C=Cc1ccccc1` [N-(CINNAMOYL)GLYCINE], the LC retention time is 3.26 min.

Consider `CSCCC(NC(C)=O)C(=O)O` (stereo not drawn) [N-ACETYLMETHIONINE], for which the LC retention time is 2.34 min.

`CC(=O)NCCc1c[nH]c2ccc(O)cc12` [N-ACETYLSEROTONIN]: the LC retention time was 2.55 min.

In the case of `CC(=O)NC(Cc1c[nH]c2ccccc12)C(=O)O` (stereo not drawn) [N-ACETYLTRYPTOPHAN], the LC retention time was 3.14 min.

Turning to `CC(=O)N[C@@H](Cc1ccc(O)cc1)C(=O)O` [N-Acetyl-L-tyrosine], the LC retention time is 2.29 min.

Turning to `CNCCc1c[nH]c2ccccc12` [N-METHYLTRYPTAMINE], the LC retention time is 2.54 min.

Regarding `CCN(Cc1ccc(Cl)nc1)C(=C[N+](=O)[O-])NC` [Nitenpyram], the LC retention time was 2.6 min.

With `CC(CC(=O)O)C1CCC2C3CCC4CC(O)CCC4(C)C3CC(O)C12C` (stereo not drawn) [Nor-Desoxycholic Acid], the LC retention time is 4.88 min.

As to `O=C(NC(=O)c1c(F)cccc1F)Nc1ccc(OC(F)(F)C(F)OC(F)(F)F)c(Cl)c1` (stereo not drawn) [Novaluron], the LC retention time is 5.71 min.

On to `CC(CCC(=O)O)C1CCC2C3C(=O)CC4CC(O)CCC4(C)C3CCC12C` (stereo not drawn) [Nutriacholic Acid], for which the LC retention time is 4.8 min.
